Where a name gives a salt, the structure may show the parent alone. Read-outs that look alike come from different tables or passages of the source.
Tests used:
wild-type HIV-1 protease = wild-type HIV-1 protease (Human immunodeficiency virus type 1 group M subtype B, UniProt P04585); assay: Assay for inhibition of microbial expressed HIV protease; format: biochemical
Description: Assay for Inhibition of Microbial Expressed HIV Protease
Inhibition studies of the reaction of the protease (which was expressed in Eschericia coli) with a peptide substrate [Val-Ser-Gln-Asn-(betanapthyl)Ala-Pro-Ile-Val]. The inhibitor is first preincubated with the enzyme in assay buffer (50 mM sodium acetate, pH 5.5, 100 mM NaCl, and 0.1% BSA) for 30 minutes at room temperature. Substrate is added to 440 micromolar in a total volume of 80 microliters containing 5 picomolar HIV-1 protease, and the reaction is incubated for 1 hour at 30° C. The reaction is quenched by addition of 120 microliters of 10% phosphoric acid, and product formation is determined after separation of product and substrate on a Vydac C18 column connected to an Alliance high performance liquid chromatography system (Waters Corporation). The extent of inhibition of the reaction is determined from the peak area of the products.

[1] = tested on: acute HIV infection of T-lymphoid cells; assay: Assay for inhibition of HIV replication (spread assay); format: cell-based, HIV-1; details: Human immunodeficiency virus 1, T-lymphoid; read-out: Spread - IC95
Description: • Assay for Inhibition of HIV Replication
Assays for the inhibition of acute HIV infection of T-lymphoid cells were conducted in accordance with Vacca, J. P. et al., Proc. Natl. Acad. Sci. USA 1994, 91: 4096.

[2] = wild-type HIV-1 protease expressed in E. coli, peptide substrate, pH 5.5, read-out: Enzyme Inhibition - IC50

SMILES	IC50 (wild-type HIV-1 protease; [2])	IC95 [1]	IC50 (wild-type HIV-1 protease)
COC(=O)N[C@H](C(=O)N[C@H](C)CCC[C@@H](CO)N(CCC(C)C)S(=O)(=O)c1ccc(N)cc1)C(c1ccccc1)c1ccccc1 (single isomer, unassigned) [D1(S)]	0.008 nM	7 nM	–
COC(=O)N[C@H](C(=O)N[C@@H](C)CCC[C@@H](CO)N(C(C)C)S(=O)(=O)c1ccc(N)cc1)C(c1cccc(F)c1)c1cccc(F)c1 [Example F15, N-{(1S,5S)-5-[[(4-aminophenyl)sulfonyl](isopropyl)amino]-6-hydroxy-1-methylhexyl}-3-fluoro-β-(3-fluorophenyl)-Nα-(methoxycarbonyl)-L-phenylalaninamide]	0.01 nM	16 nM	–
COC(=O)N[C@H](C(=O)N[C@H](CCC[C@@H](CO)N(C(C)C)S(=O)(=O)c1ccc(CO)cc1)C1CC1)C(c1ccccc1)c1ccccc1 [Example I3, N-{(1R,5S)-1-cyclopropyl-6-hydroxy-5-[{[4-(hydroxymethyl)phenyl]sulfonyl}(isopropyl)amino]hexyl}-Nα-(methoxycarbonyl)-β-phenyl-L-phenylalaninamide]	0.134 nM	50 nM	–
COC(=O)N[C@@H](Cc1ccccc1Cl)C(=O)N[C@H](CCC[C@@H](CO)N(CC(C)C)S(=O)(=O)c1ccc(CO)cc1)C1CC1 [Example I1, 2-chloro-N-{(1R,5S)-1-cyclopropyl-6-hydroxy-5-[{[4-(hydroxymethyl)phenyl]sulfonyl}-(isobutyl)amino]hexyl}-Nα-(methoxycarbonyl)-L-phenylalaninamide]	0.634 nM	155 nM	–
COC(=O)N[C@H](C(=O)N[C@H](CCC[C@@H](CO)N(CCC(C)C)S(=O)(=O)c1ccc([C@H](C)O)cc1)C1CC1)C(c1ccc(F)cc1)c1ccc(F)cc1 [Example J3, N-{(1R,5S)-1-cyclopropyl-6-hydroxy-5-[({4-[(1S)-1-hydroxyethyl]phenyl}sulfonyl)(3-methylbutyl)amino]hexyl}-4-fluoro-β-(4-fluorophenyl)-Nα-(methoxycarbonyl)-L-phenylalaninamide]	0.011 nM	25 nM	–
COC(=O)N[C@H](C(=O)N[C@H](CCC[C@@H](CO)N(CCC(C)C)S(=O)(=O)c1ccc(N)c(F)c1)C(C)C)C(c1ccccc1)c1ccccc1 [Example D16, N-{(1R,5S)-5-[[(4-amino-3-fluorophenyl)sulfonyl](3-methylbutyl)amino]-6-hydroxy-1-isopropylhexyl}-Nα-(methoxycarbonyl)-β-phenyl-L-phenylalaninamide]	0.329 nM	152 nM	–
CCCN([C@H](CO)CCCC(C)(C)NC(=O)[C@@H](NC(=O)OC)C(c1ccccc1)c1ccccc1)S(=O)(=O)c1ccc(N)cc1 [Example L6, N-{(5S)-5-[[(4-aminophenyl)sulfonyl](propyl)amino]-6-hydroxy-1,1-dimethylhexyl}-Nα-(methoxycarbonyl)-β-phenyl-L-phenylalaninamide]	0.095 nM	196 nM	–
CC[C@@H](CCC[C@@H](CO)N(C(C)C)S(=O)(=O)c1ccc(CO)cc1)NC(=O)[C@@H](N)C(c1ccccc1)c1ccccc1 [Example J36, N-{(1S,5S)-1-ethyl-6-hydroxy-5-[{[4-(hydroxymethyl)phenyl]sulfonyl}(isopropyl)amino]hexyl}-β-phenyl-L-phenylalaninamide]	0.098 nM	27 nM	–
CC[C@@H](CCC[C@@H](CO)N(CCC(C)C)S(=O)(=O)c1ccc(N)cc1)NC(=O)[C@@]1(NC(=O)OC(C)(C)C)C[C@@H]1c1ccccc1 [Example F9, tert-butyl {(1R,2R)-1-[({(1S,5S)-5-[[(4-aminophenyl)sulfonyl](3-methylbutyl)amino]-1-ethyl-6-hydroxyhexyl}amino)carbonyl]-2-phenylcyclopropyl}carbamate]	0.064 nM	76 nM	–
CC[C@@H](CCC[C@@H](CO)N(CC(C)C)S(=O)(=O)c1ccc(CO)cc1)NC(=O)[C@@H](N)C(c1ccccc1)c1ccccc1 [Example J32, N-{(1S,5S)-1-ethyl-6-hydroxy-5-[{[4-(hydroxymethyl)phenyl]sulfonyl}(isobutyl)amino]hexyl}-β-phenyl-L-phenylalaninamide hydrochloride]	–	25 nM	0.01 nM
COC(=O)N[C@@H](Cc1ccccc1Cl)C(=O)N[C@@H](C)CCC[C@@H](CO)N(C(C)C)S(=O)(=O)c1ccc(CO)cc1 [Example G10, 2-chloro-N-{(1S,5S)-6-hydroxy-5-[{[4-(hydroxymethyl)phenyl]sulfonyl}(isopropyl)amino]-1-methylhexyl}-Nα-(methoxycarbonyl)-L-phenylalaninamide]	0.389 nM	49 nM	–
COC(=O)N[C@@H](Cc1ccccc1Cl)C(=O)N[C@@H](C)CCC[C@@H](CO)N(CCC(C)C)S(=O)(=O)c1ccc(N)cc1 [Example D7, N-{(1S,5S)-5-[[(4-aminophenyl)sulfonyl](3-methylbutyl)amino]-6-hydroxy-1-methylhexyl}-2-chloro-Nα-(methoxycarbonyl)-L-phenylalaninamide]	0.064 nM	19 nM	–
CC[C@@H](CCC[C@@H](CO)N(CC(C)C)S(=O)(=O)c1ccc(CO)cc1)NC(=O)[C@H](Cc1ccccc1Cl)NC(=O)OC [Example J21, 2-chloro-N-{(1S,55)-1-ethyl-6-hydroxy-5-[{[4-(hydroxymethyl)phenyl]sulfonyl}(isobutyl)amino]hexyl}-Nα-(methoxycarbonyl)-L-phenylalaninamide]	0.419 nM	49 nM	–
CCN([C@H](CO)CCC[C@@H](NC(=O)[C@@H](NC(=O)OC)C(c1ccccc1)c1ccccc1)C1CC1)S(=O)(=O)c1ccc(CO)cc1 [Example I5, N-[(1R,5S)-1-cyclopropyl-5-(ethyl{[4-(hydroxymethyl)phenyl]sulfonyl}amino)-6-hydroxyhexyl]-Nα-(methoxycarbonyl)-β-phenyl-L-phenylalaninamide]	0.011 nM	85 nM	–
COC(=O)N[C@H](C(=O)NC(C)(C)CCC[C@@H](CO)N(CC(C)C)S(=O)(=O)c1ccc(N)cc1)C(c1ccccc1)c1ccccc1 [Example L5, N-{(5S)-5-[[(4-aminophenyl)sulfonyl](isobutyl)amino]-6-hydroxy-1,1-dimethylhexyl}-Nα-(methoxycarbonyl)-β-phenyl-L-phenylalaninamide]	0.154 nM	185 nM	–
CN[C@H](C(=O)NC(C)(C)CCC[C@@H](CO)N(C(C)C)S(=O)(=O)c1ccc(N)cc1)C(c1ccccc1)c1ccccc1 [Example L9, N-{(5S)-5-[[(4-aminophenyl)sulfonyl](isopropyl)amino]-6-hydroxy-1,1-dimethylhexyl}-Nα-methyl-β-phenyl-L-phenylalaninamide hydrochloride]	–	26 nM	0.1 nM
COC(=O)N[C@@H](Cc1ccccc1Br)C(=O)N[C@H](CCC[C@@H](CO)N(C(C)C)S(=O)(=O)c1ccc(CO)cc1)C1CC1 [Example J37, 2-bromo-N-{(1R,5S)-1-cyclopropyl-6-hydroxy-5-[{[4-(hydroxymethyl)phenyl]sulfonyl}(isopropyl)amino]hexyl}-Nβ-(methoxycarbonyl)-L-phenylalaninamide]	0.595 nM	37 nM	–
CC[C@@H](CCC[C@@H](CO)N(CCC(C)C)S(=O)(=O)c1ccc(N)c(Br)c1)NC(=O)[C@@H](NC(=O)OC)C(c1ccccc1)c1ccccc1 [Example D17, N-{(1S,5S)-5-[[(4-amino-3-bromophenyl)sulfonyl](3-methylbutyl)amino]-1-ethyl-6-hydroxyhexyl}-Nα-(methoxycarbonyl)-β-phenyl-L-phenylalaninamide]	0.38 nM	154 nM	–
CCC[C@@H](CCC[C@@H](CO)N(CCC(C)C)S(=O)(=O)c1ccc(N)cc1)NC(=O)[C@@H](NC(=O)OC)C(c1ccccc1)c1ccccc1 [Example D6, N-{(1S,5S)-5-[[(4-aminophenyl)sulfonyl](3-methylbutyl)amino]-6-hydroxy-1-propylhexyl}-Nα-(methoxycarbonyl)-β-phenyl-L-phenylalaninamide]	0.106 nM	56 nM	–
CC(C)CCN([C@@H](CCCCNC(=O)[C@@H](N)C(c1ccccc1)c1ccccc1)C(C)O)S(=O)(=O)c1ccc(N)cc1 (mixture of isomers) [Example A1, (2S)-2-amino-N-{5-[[(4-aminophenyl)sulfonyl]-(3-methylbutyl)amino]-6-hydroxyheptyl}-3,3-diphenylpropanamide]	0.43 nM	140 nM	–
C=C[C@H](CCC[C@@H](CO)N(CCC(C)C)S(=O)(=O)c1ccc(CO)cc1)NC(=O)[C@@H](NC(=O)OC)C(c1ccccc1)c1ccccc1 [Example J11, N-{(1S,5S)-6-hydroxy-5-[{[4-(hydroxymethyl)phenyl]sulfonyl}(3-metbylbutyl)amino]-1-vinylhexyl}-Nα-(methoxycarbonyl)-β-phenyl-L-phenylalaninamide]	0.185 nM	107 nM	–
COC(=O)N[C@H](C(=O)N[C@@H](C)CCC[C@@H](CO)N(CCCF)S(=O)(=O)c1ccc(N)cc1)C(c1ccccc1)c1ccccc1 [Example F4, N-{(1S,5S)-5-[[(4-aminophenyl)sulfonyl](3-fluoropropyl)amino]-6-hydroxy-1-methylhexyl}-Nα-(methoxycarbonyl)-β-phenyl-L-phenylalaninamide]	0.055 nM	65 nM	–
